From ChEMBL document CHEMBL4004868, “Synthesis and in vitro biological evaluation of novel quinazoline derivatives” (Bioorg Med Chem Lett, 2017)
pIC50: −log10 of the molar value. Active and inactive are the calls of the source. No cut-off for these calls is given here.

What was measured:
A-431 = test: Cytotoxicity against human A431 cells assessed as decrease in cell viability after 72 hrs by MTT assay; assay type: functional
A549 [1] = test: Cytotoxicity against human A549 cells assessed as decrease in cell viability after 72 hrs by MTT assay; assay type: functional
[2] = target: T1, Epidermal growth factor receptor (Homo sapiens, UniProt P00533); test: Inhibition of wild type recombinant EGFR (unknown origin) using poly (Glu,Tyr) 4:1 as substrate after 60 mins by ELISA
NCI-H1975 = test: Cytotoxicity against human NCI-H1975 cells assessed as decrease in cell viability after 72 hrs by MTT assay; assay type: functional
SW480 = test: Cytotoxicity against human SW480 cells assessed as decrease in cell viability after 72 hrs by MTT assay; assay type: functional
[3] = target: T1, Epidermal growth factor receptor; test: Inhibition of EGFR phosphorylation at Tyr residue in human NCI-H1975 cells at 50 uM preincubated for 2 hrs followed by EGF induction measured after 10 mins by Western blot method; assay type: cell-based
[4] = target: T1, Epidermal growth factor receptor; test: Inhibition of EGFR phosphorylation at Y1068 in human NCI-H1975 cells at 50 uM preincubated for 2 hrs followed by EGF induction measured after 10 mins by Western blot method; assay type: cell-based
[5] = target: T1, Epidermal growth factor receptor; test: Inhibition of EGFR phosphorylation at Tyr residue in human A549 cells at 1 uM preincubated for 2 hrs followed by EGF induction measured after 10 mins by Western blot method; assay type: cell-based
A549 [6] = test: Effect on total GAPDH levels in human A549 cells at 1 to 50 uM after 2 hrs by Western blot method; assay type: ADME, cell-based; details: a549, 2 h
A549 [7] = test: Effect on total Akt levels in human A549 cells at 1 to 50 uM after 2 hrs by Western blot method; assay type: ADME, cell-based; details: a549, 2 h
[8] = target: T1, Epidermal growth factor receptor; test: Inhibition of EGFR in human A549 cells assessed as decrease in ERK1/2 phosphorylation at T202/204 at 1 uM preincubated for 2 hrs followed by EGF induction measured after 10 mins by Western blot method; assay type: cell-based
[9] = target: T1, Epidermal growth factor receptor; test: Inhibition of EGFR phosphorylation at Y1068 in human A549 cells at 1 uM preincubated for 2 hrs followed by EGF induction measured after 10 mins by Western blot method; assay type: cell-based
[10] = target: T1, Epidermal growth factor receptor; test: Inhibition of EGFR in human NCI-H1975 cells assessed as decrease in Akt phosphorylation at S473 at 50 uM preincubated for 2 hrs followed by EGF induction measured after 10 mins by Western blot method; assay type: cell-based
[11] = target: T1, Epidermal growth factor receptor; test: Inhibition of EGFR in human A549 cells assessed as decrease in Akt phosphorylation at S473 at 1 uM preincubated for 2 hrs followed by EGF induction measured after 10 mins by Western blot method; assay type: cell-based
A549 [12] = test: Effect on total EGFR levels in human A549 cells at 1 to 50 uM after 2 hrs by Western blot method; assay type: ADME, cell-based; details: a549, 2 h
[13] = target: T1, Epidermal growth factor receptor; test: Inhibition of EGFR in human NCI-H1975 cells assessed as decrease in Erk1/2 phosphorylation at T202/204 at 50 uM preincubated for 2 hrs followed by EGF induction measured after 10 mins by Western blot method; assay type: cell-based
A549 [14] = test: Effect on total Erk levels in human A549 cells at 1 to 50 uM after 2 hrs by Western blot method; assay type: ADME, cell-based; details: a549, 2 h

T1 sequence (P00533 whole entry): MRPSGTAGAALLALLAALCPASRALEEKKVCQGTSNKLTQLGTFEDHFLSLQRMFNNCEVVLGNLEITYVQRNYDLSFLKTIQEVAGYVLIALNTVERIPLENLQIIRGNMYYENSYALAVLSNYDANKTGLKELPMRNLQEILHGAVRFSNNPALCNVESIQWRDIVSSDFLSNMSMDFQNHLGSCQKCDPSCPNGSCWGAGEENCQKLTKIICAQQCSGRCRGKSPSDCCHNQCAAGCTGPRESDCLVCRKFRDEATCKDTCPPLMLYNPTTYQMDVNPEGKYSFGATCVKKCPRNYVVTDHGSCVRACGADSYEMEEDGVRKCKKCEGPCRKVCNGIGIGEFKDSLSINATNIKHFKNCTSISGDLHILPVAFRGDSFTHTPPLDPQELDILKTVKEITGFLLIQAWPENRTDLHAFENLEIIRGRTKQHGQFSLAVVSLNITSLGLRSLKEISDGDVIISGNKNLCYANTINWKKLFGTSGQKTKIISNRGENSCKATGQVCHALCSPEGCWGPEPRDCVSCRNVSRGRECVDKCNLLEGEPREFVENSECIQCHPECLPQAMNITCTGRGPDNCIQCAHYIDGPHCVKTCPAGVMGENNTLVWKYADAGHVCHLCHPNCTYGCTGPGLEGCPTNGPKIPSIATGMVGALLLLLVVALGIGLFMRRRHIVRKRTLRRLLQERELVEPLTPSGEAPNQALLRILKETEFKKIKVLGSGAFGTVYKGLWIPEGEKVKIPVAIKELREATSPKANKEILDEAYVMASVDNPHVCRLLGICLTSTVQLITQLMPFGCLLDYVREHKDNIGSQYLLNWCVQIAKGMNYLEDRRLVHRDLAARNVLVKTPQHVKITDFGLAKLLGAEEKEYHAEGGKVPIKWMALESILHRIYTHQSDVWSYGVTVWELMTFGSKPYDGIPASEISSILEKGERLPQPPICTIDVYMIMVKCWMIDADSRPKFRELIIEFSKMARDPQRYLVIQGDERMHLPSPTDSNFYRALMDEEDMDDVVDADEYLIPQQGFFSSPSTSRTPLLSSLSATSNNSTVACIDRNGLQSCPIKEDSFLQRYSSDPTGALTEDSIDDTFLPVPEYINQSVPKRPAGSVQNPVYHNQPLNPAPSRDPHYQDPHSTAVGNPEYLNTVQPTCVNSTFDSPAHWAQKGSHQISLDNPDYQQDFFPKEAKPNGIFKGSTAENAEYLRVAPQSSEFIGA

Work on `CS(=O)(=O)CCNCc1ccc(-c2ccc3ncnc(Nc4ccc(F)c(Cl)c4)c3c2)o1` yielded an IG50 (A-431) of 39.34 µM, an IG50 (A549 [1]) greater than 100 µM and a pIC50 [2] of 7.62. For the same compound, the IG50 (NCI-H1975) was 83.61 µM and the IG50 (SW480) was 60.59 µM.

`C#Cc1cccc(Nc2ncnc3ccc(-c4ccc(CO)o4)cc23)c1` showed an IG50 (A-431) of 3.21 µM, an IG50 (A549 [1]) greater than 100 µM and a pIC50 [2] of 7.80. For the same compound, the IG50 (NCI-H1975) was greater than 100 µM and the IG50 (SW480) was greater than 100 µM.

Work on `C#Cc1cccc(Nc2ncnc3ccc(-c4ccc(COC(C)=O)o4)cc23)c1` yielded an IG50 (A-431) of 1.28 µM, an IG50 (A549 [1]) of 4.05 µM and an IG50 (NCI-H1975) of 5.4 µM. It also gave an IG50 (SW480) of 14.97 µM.

With `C/C=C/c1ccc(Nc2ncnc3ccc(-c4ccc(CNCCS(C)(=O)=O)o4)cc23)cc1` the IG50 (A-431) was 37.56 µM, the IG50 (A549 [1]) was 84.5 µM and the IG50 (NCI-H1975) was greater than 100 µM. The IG50 (SW480) was 56.34 µM.

With `C/C=C/c1ccc(Nc2ncnc3ccc(-c4ccc(COC(C)=O)o4)cc23)cc1` the IG50 (A-431) was 5.53 µM, the IG50 (A549 [1]) was 20.61 µM and the IG50 (NCI-H1975) was 40.85 µM. The IG50 (SW480) was 11.18 µM.

`CC(=O)OCc1ccc(-c2ccc3ncnc(Nc4ccc(F)c(Cl)c4)c3c2)o1` was tested, and the IG50 (A-431) was 10.75 µM, the IG50 (A549 [1]) was greater than 100 µM and the IG50 (NCI-H1975) was 54.13 µM. It also gave an IG50 (SW480) of 43.18 µM.

In the case of `OCc1ccc(-c2ccc3ncnc(Nc4ccc(OCc5cccc(F)c5)c(Cl)c4)c3c2)o1`, the inhibition [3] was “Active”, the IG50 (A-431) was 3.64 µM and the inhibition [4] was “Active”. For the same compound, the inhibition [5] was “Active”, the Activity (A549 [6]) was “Non-Toxic” and the IG50 (A549 [1]) was 7.35 µM. For the same compound, the Activity (A549 [7]) was “Non-Toxic”, the inhibition [8] was “Active” and the inhibition [9] was “Active”. The inhibition [10] was “Active”, the pIC50 [2] was 8.30 and the inhibition [11] was “Active”. The IG50 (NCI-H1975) was 3.01 µM, the Activity (A549 [12]) was “Non-Toxic” and the IG50 (SW480) was 5.58 µM. For the same compound, the inhibition [13] was “Active” and the Activity (A549 [14]) was “Non-Toxic”.

`C/C=C/c1ccc(Nc2ncnc3ccc(-c4ccc(CO)o4)cc23)cc1` gave an IG50 (A-431) of 21.43 µM, an IG50 (A549 [1]) of 38.24 µM and an IG50 (NCI-H1975) of 37.93 µM. For the same compound, the IG50 (SW480) was 51.25 µM.

Compound `CC(=O)OCc1ccc(-c2ccc3ncnc(Nc4ccc(OCc5cccc(F)c5)c(Cl)c4)c3c2)o1` has an IG50 (A-431) of 8.33 µM, an IG50 (A549 [1]) of 5.49 µM and an IG50 (NCI-H1975) of 6.78 µM. For the same compound, the IG50 (SW480) was 5.18 µM.

Work on `CS(=O)(=O)CCNCc1ccc(-c2ccc3ncnc(Nc4ccc(OCc5cccc(F)c5)c(Cl)c4)c3c2)o1` [LAPATINIB] yielded an IG50 (A-431) of 4.8 µM, an IG50 (A549 [1]) of 14.9 µM and an IG50 (NCI-H1975) of 9.08 µM. The IG50 (SW480) was 12.58 µM.

In the case of `C#Cc1cccc(Nc2ncnc3ccc(-c4ccc(CNCCS(C)(=O)=O)o4)cc23)c1`, the IG50 (A-431) was 5.78 µM, the IG50 (A549 [1]) was 11.35 µM and the IG50 (NCI-H1975) was 14.92 µM. For the same compound, the IG50 (SW480) was 13.38 µM.

Work on `OCc1ccc(-c2ccc3ncnc(Nc4ccc(F)c(Cl)c4)c3c2)o1` yielded an IG50 (A-431) of 3.91 µM, an IG50 (A549 [1]) greater than 100 µM and an IG50 (NCI-H1975) greater than 100 µM. For the same compound, the IG50 (SW480) was greater than 100 µM.
